Legend:
Type in all cases: cell-based, human
[1] = system: Caco2 cells; test: Glucose uptake assay; parameters: key to * (regulatory effect on glucose uptake): ↑: the arrows that point up represent the enhancing effect on the glucose uptake; settings: for Uptake rate (glucose): 48 hours, 25 mM glucose
Experimental: To evaluate the effect of the isolated astragaloside compound on the uptake of nutrient substances across the intestinal lumen, Caco-2 cells were grown on permeable filter as an experimental model. Caco2 cells originate from human colonic adenocarcinoma and spontaneously differentiate into an enterocyte-like phenotype after two weeks. The Caco-2 cell line, derived from a human colorectal carcinoma, has been used as an in vitro model system for studying drug absorption in gastrointestinal tract. These cells form monolayers with well-developed tight-junctions, and have been evaluated in details as an in vitro model to study both transcellular transport of nutrients and drugs in intestinal lumen.
Caco-2 cells were obtained from the ATCC (American Type Culture Collection). The cells were maintained in Dulbecco's modified Eagle medium (DMEM) containing 4.5 g/L glucose and 25 mM Hepes, supplemented with 10% fetal calf serum, 100 U/mL penicillin G and […]. The medium was changed every second day. The cells were routinely checked for Mycoplasma in monthly intervals. Caco-2 cells were cultured on semi-permeable membranes to differentiate into a highly functionalized epithelial barrier with remarkable morphological and biochemical similarity to the small intestinal columnar epithelium. The Caco-2 cell monolayers could therefore be used to study the membrane transport properties of many compounds. To trypsinize the cells, the culture dish was washed once with phosphate-buffered saline (PBS) followed by adding trypsine-EDTA for 10 minutes. The trypsinized cells were separated and filtered into single cells using a 35-μm strainer cap (Falcon 2235) before being seeded for further experiments.
Caco-2 cells (5×10^4) were seeded in a 48-well plate and maintained in culture medium (DMEM with 10% FBS, 1% nonessential amino acids, L-glutamine, penicillin G (100 U/mL), streptomycin (10 μg/mL), and amphotericin B (2.5 μg/mL) in a 37° C. incubator for 10 days for the cells to differentiate. The culture medium was changed once every two days. The cells were then washed with PBS before replenishing with the culture medium containing 5% FBS and various astragalosides at the indicated concentrations (0.01, 0.1 and 1 μM) for 48 hours. The Caco2 cells were washed out of remaining glucose with PBS and replaced in the glucose buffer (80 mM NaCl, 100 mM mannitol, 20 mM Tris-HCl, pH 7.4, 3 mM K2HPO4, 1 mM CaCl2, 1 mg/mL BSA) for 1 hour. Glucose uptake was initiated by replacing the glucose buffer with 0.2 ml of glucose buffer containing 2 μCi/mL of ^14C-glucose and unlabeled cold glucose to give a final glucose concentration of 25 mM. Glucose uptake was stopped by removing the glucose buffer and washing with PBS at designated time intervals. The cells were lysed in 0.2 mL of 0.2 N NaOH, and 20 μL of the cell lysate were transferred to the filter-bottomed UniFilter plates (Perkin-Elmer, Wellesley, Mass., USA) and dried in a vacuum oven at 37° C. The bottom of the UniFilter plate was sealed and 25 μL of the counting solution were added into each well. Adhesive plate sealers were used in place of the lids and radioactivity of each sample was counted using the microplate liquid scintillation counter (TopCount, Packard NXT, Packard BioScience Company, Meriden, Conn., USA). The amount of glucose accumulated in the cells was calculated and normalized to protein concentration, and uptake rate was expressed as nanomoles of glucose per minutes per milligram of cell protein (nmol/min/mg). Protein concentration was determined by a standard Bicinchoninic acid (BCA) protein assay. Nonspecific glucose uptake was measured by adding 2 μCi of L-[^14C]-glucose and subtracting from each determination to obtain specific glucose uptake.

[2] = system: Caco-2 cell monolayer; test: Arginine absorption assay (transport across Caco-2 cell monolayer); parameters: key to * (regulatory effect on arginine transport): ↑: the arrows that point up represent the enhancing effect on the arginine transport; settings: for Transport rate (arginine): 10 mM L-arginine apical
Method in brief: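 Differentiated Caco-2 monolayers on transwells, preincubated 1 h at 37° C in pH 7.4 Hepes-buffered saline with glucose. Apical 10 mM L-arginine spiked with L-[3H]-arginine; basolateral radioactivity sampled over time. Transport corrected by [3H]-mannitol, expressed as nmol/min.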

[3] = system: Caco-2 cell monolayer; test: Tryptophan absorption assay (transport across Caco-2 cell monolayer); parameters: key to * (regulatory effect on tryptophan transport): ↑: the arrows that point up represent the enhancing effect on the tryptophan transport
Method in brief: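 Differentiated Caco-2 monolayers on transwell filters were preincubated for 1 h at 37 °C in choline chloride-based buffer at pH 7.4. Transport began when apical tryptophan was added. Basolateral samples taken over time were counted, corrected for nonspecific flux using [3H]-mannitol, and expressed as nmol/min.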

[4] = system: Caco2 cells; test: Folate uptake assay; parameters: key to * (regulatory effect on folate uptake): ↑: the arrows that point up represent the enhancing effect on folate uptake; settings: compound 0.1 μM
Method in brief: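 Caco-2 cells differentiated 10 days, then pretreated 2 days with 0.1 μM isolated astragalosides in 5% FBS medium. Preincubated 1 h in HBSS-based folate uptake buffer pH 6.0; uptake started with 2 μCi/mL ³H-folic acid plus unlabeled folate.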

With CC(=O)O[C@@H]1[C@@H](O)[C@H](O[C@H]2CC[C@]34C[C@]35CC[C@]3(C)[C@@H]([C@@]6(C)CC[C@@H](C(C)(C)O)O6)[C@@H](O)C[C@@]3(C)[C@@H]5C[C@H](O[C@@H]3O[C@H](CO)[C@@H](O)[C@H](O)[C@H]3O)[C@H]4C2(C)C)OC[C@H]1O [IsoAS2, isoastragaloside II] as the compound, how does the “Regulatory effects on the glucose uptake of the Caco2 cells” value ([1]; Table 2 summary) read?
The value was “had regulatory effects on the glucose uptake”.

And the “* (regulatory effect on glucose uptake)” value ([1]; compound 0.01 μM)?
Its value is “↑”.

And the “Percentage (glucose uptake, control = 100)” value ([1]; compound 0.01 μM)?
Its value is 115.69%.

And the “Uptake rate (glucose)” value ([1]; compound 0.01 μM)?
The value was 7.3720 ± 2.5700 nmol/mg/min.

And the “* (regulatory effect on glucose uptake)” value ([1]; compound 0.1 μM)?
Its value is “↑”.

What about the “Percentage (glucose uptake, control = 100)” value ([1]; compound 0.1 μM) of the same compound?
Its value is 107.05%.

And the “Uptake rate (glucose)” value ([1]; compound 0.1 μM)?
The value was 6.8210 ± 1.6630 nmol/mg/min.

And the “Percentage (glucose uptake, control = 100)” value ([1]; compound 1 μM)?
The value was 96.55%.

What about the “Uptake rate (glucose)” value ([1]; compound 1 μM) of the same compound?
Its value is 6.1520 ± 2.4610 nmol/mg/min.

What about the “Regulatory effects on the arginine transport across the Caco2 cell monolayer” value ([2]; Table 3 summary) of the same compound?
Its value is “had regulatory effects on the arginine transport”.

What about the “* (regulatory effect on arginine transport)” value ([2]; compound 0.01 μM) of the same compound?
The value was “↑”.

And the “Percentage (arginine transport, control = 100)” value ([2]; compound 0.01 μM)?
The value was 138.11%.

And the “Transport rate (arginine)” value ([2]; compound 0.01 μM)?
Its value is 14.7577 ± 0.2837 nmol/min.

What about the “* (regulatory effect on arginine transport)” value ([2]; compound 0.1 μM) of the same compound?
The value was “↑”.

And the “Percentage (arginine transport, control = 100)” value ([2]; compound 0.1 μM)?
The value was 132.01%.

What about the “Transport rate (arginine)” value ([2]; compound 0.1 μM) of the same compound?
Its value is 14.1059 ± 0.1815 nmol/min.

And the “* (regulatory effect on arginine transport)” value ([2]; compound 1 μM)?
The value was “↑”.

What about the “Percentage (arginine transport, control = 100)” value ([2]; compound 1 μM) of the same compound?
The value was 118.40%.

And the “Transport rate (arginine)” value ([2]; compound 1 μM)?
Its value is 12.6518 ± 0.3680 nmol/min.

What about the Arginine transport rate ([2]; concentration from 0.01 μM to 1 μM) of the same compound?
Its Arginine transport rate is “increased”.

And the “Regulatory effects on the tryptophan transport across the Caco2 cell monolayer” value ([3]; Table 4 summary)?
The value was “had regulatory effects on the tryptophan transport”.

What about the “* (regulatory effect on tryptophan transport)” value ([3]; compound 0.01 μM) of the same compound?
The value was “↑”.

And the “Percentage (tryptophan transport, control = 100)” value ([3]; compound 0.01 μM)?
Its value is 145.38%.

What about the “Transport rate (tryptophan)” value ([3]; compound 0.01 μM) of the same compound?
Its value is 13.000 ± 0.5547 nmol/min.

What about the “* (regulatory effect on tryptophan transport)” value ([3]; compound 0.1 μM) of the same compound?
Its value is “↑”.

And the “Percentage (tryptophan transport, control = 100)” value ([3]; compound 0.1 μM)?
The value was 146.05%.

What about the “Transport rate (tryptophan)” value ([3]; compound 0.1 μM) of the same compound?
Its value is 13.060 ± 0.5530 nmol/min.

What about the “* (regulatory effect on tryptophan transport)” value ([3]; compound 1 μM) of the same compound?
The value was “↑”.

What about the “Percentage (tryptophan transport, control = 100)” value ([3]; compound 1 μM) of the same compound?
Its value is 224.45%.

What about the “Transport rate (tryptophan)” value ([3]; compound 1 μM) of the same compound?
Its value is 20.070 ± 0.1931 nmol/min.

What about the Tryptophan transport rate ([3]; concentration from 0.01 μM to 1 mM) of the same compound?
The Tryptophan transport rate was “increased”.

And the “* (regulatory effect on folate uptake)” value [4]?
Its value is “↑”.

And the “Percentage (folate uptake vs own control)” value [4]?
Its value is 162.87%.

What about the “Uptake rate (folate)” value ([4]; 2 days, 5 μM folate, pH 6.0) of the same compound?
The value was 86.63 ± 2.82 pmol/mg/min.

Reference: patent US8197860B2, “Method for enhancing nutrient absorption with astragalosides” (Nuliv Holding Inc., priority 2005, dated 2012)
